Data on 2 molecules can be found in patent US20180042874A1, “METHOD FOR TREATING OSTEOPOROSIS” (China Medical University, priority 2016, published 2018).

The nature of this data set: Body weight in ovariectomized osteoporosis rat model. It counts as in vivo, Sprague-Dawley (SD) female rats. The procedure:
Inducing osteoporosis animal models and experimental methods: • 1. 6-month old Sprague-Dawley (SD) female rats were purchased; • 2. These rats were divided into 7 groups, of which Group 1 was given pseudo-surgery, Group 2-7 underwent bilateral ovariectomies; • 3. On the 6th day after surgery, 1 mL/kg of vehicle alone was given orally to Group 1, Group 2 daily, Zoledronic Acid and Prolia were administered weekly by injections to Group 3, Group 4, respectively; 1, 3, 10 mg/kg of the compound of formula I was given orally every 3 days to Groups 5-7, respectively; • 4. Body weight and bone density were measured weekly, blood was drawn until the 118th day; • 5. Rats were then sacrificed to obtain kidneys, livers and rat tibia; • 6. Data were consolidated and processed.

In the case of `O=P(O)(O)C(O)(Cn1ccnc1)P(=O)(O)O` [Zoledronic acid], under “ovariectomized rats”, the “effect on body weight” value is recorded as “decreased the body weight”.

As for “Proliaor: commercially available drug, injected weekly as comparator in ovariectomized rats”, the “effect on body weight” value (rat, in vivo) was “increased the body weight”.
